Data as given in patent US10370366B2 (Flatley Discovery Lab, LLC, priority 2013, dated 2019).

Molecular target: T1, human F508del CFTR (Homo sapiens, UniProt P13569, DEL508-508)
T1 construct: expressed in transfected cells; host or cells: Fisher Rat Thyroid (FRT) cells
Assay: CFTR-YFP High Throughput Assay
Type: cell-based
Settings: FRT cells expressing human F508del CFTR and YFP; for Emax: EMax normalized to the positive control, read-out: % Efficacy
In short: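 Corrector mode: 24-26 h compound exposure (2 nM-40 μM, 37° C) of FRT cells carrying human F508del CFTR and YFP-H148Q/I152L, followed by washing and 60-120 min RT stimulation with 20 μM forskolin and 30 μM P3. CFTR activity is the least-squares-fitted rate of YFP quenching (Ex 500/Em 540 nm) after iodide addition.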

T1 sequence (P13569 with tags, fused parts or gaps DEL508-508): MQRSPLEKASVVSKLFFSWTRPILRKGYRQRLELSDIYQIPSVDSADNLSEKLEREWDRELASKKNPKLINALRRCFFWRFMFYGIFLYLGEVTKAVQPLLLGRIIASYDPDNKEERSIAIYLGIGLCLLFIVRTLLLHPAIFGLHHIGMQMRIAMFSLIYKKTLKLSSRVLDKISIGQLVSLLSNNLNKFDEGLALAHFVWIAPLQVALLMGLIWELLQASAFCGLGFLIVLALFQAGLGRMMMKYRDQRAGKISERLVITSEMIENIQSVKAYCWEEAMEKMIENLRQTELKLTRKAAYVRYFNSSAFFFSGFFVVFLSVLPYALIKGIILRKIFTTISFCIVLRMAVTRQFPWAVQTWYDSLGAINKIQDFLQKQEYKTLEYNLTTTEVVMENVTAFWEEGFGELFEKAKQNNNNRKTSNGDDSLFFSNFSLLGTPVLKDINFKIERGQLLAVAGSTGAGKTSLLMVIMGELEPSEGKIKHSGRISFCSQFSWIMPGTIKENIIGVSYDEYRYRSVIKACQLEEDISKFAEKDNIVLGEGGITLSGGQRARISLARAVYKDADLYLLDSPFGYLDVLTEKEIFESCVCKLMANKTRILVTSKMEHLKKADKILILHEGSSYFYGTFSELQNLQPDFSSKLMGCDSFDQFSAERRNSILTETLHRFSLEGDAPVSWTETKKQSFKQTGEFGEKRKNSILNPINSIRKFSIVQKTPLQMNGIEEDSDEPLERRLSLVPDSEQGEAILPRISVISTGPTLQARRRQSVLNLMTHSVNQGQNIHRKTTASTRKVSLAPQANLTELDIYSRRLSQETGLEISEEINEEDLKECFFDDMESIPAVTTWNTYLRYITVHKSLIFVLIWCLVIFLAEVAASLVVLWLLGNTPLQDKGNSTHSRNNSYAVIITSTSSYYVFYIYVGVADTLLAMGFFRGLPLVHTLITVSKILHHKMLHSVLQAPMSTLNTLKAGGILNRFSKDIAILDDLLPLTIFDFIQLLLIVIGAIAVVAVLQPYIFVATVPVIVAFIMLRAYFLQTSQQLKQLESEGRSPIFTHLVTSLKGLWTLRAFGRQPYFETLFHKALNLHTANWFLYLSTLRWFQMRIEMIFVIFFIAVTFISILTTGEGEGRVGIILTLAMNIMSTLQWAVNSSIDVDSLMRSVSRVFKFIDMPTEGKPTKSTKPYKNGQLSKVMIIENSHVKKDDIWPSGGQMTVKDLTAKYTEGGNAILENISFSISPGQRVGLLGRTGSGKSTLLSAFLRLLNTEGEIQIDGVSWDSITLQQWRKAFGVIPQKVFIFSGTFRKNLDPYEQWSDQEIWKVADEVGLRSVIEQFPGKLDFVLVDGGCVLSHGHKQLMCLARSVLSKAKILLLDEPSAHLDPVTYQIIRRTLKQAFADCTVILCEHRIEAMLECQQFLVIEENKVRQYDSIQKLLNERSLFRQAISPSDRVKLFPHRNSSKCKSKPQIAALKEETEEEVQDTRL

Structure (SMILES)	Emax [%]	EC50 [µM]
CCN(C(=O)c1nn(C[C@@H](O)COCc2ccccc2)c(=O)c2c1c1ccccc1n2C)c1ccccc1 [Example 230, (R)-3-(3-(benzyloxy)-2-hydroxypropyl)-N-ethyl-5-methyl-4-oxo-N-phenyl-4,5-dihydro-3H-pyridazino[4,5-b]indole-1-carboxamide]	30 to 80	< 10
CCN(CC)C(=O)c1nn(CC(O)COCc2ccccc2)c(=O)c2c1c1c(OC)cccc1n2C (centres unmarked) [Example 231, 3-(3-(benzyloxy)-2-hydroxypropyl)-N,N-diethyl-9-methoxy-5-methyl-4-oxo-4,5-dihydro-3H-pyridazino[4,5-b]indole-1-carboxamide]	30 to 80	< 10
CCN(CC)C(=O)c1nn(CC(O)COCc2ccccc2)c(=O)c2c1c1c(C)cccc1n2C (centres unmarked) [Example 232, 3-(3-(benzyloxy)-2-hydroxypropyl)-N,N-diethyl-5,9-dimethyl-4-oxo-4,5-dihydro-3H-pyridazino[4,5-b]indole-1-carboxamide]	30 to 80	< 10
CCN(CC)C(=O)c1nn(CC(O)COCc2ccccc2)c(=O)c2c1c1c(Cl)cccc1n2C (centres unmarked) [Example 233, 3-(3-(benzyloxy)-2-hydroxypropyl)-9-chloro-N,N-diethyl-5-methyl-4-oxo-4,5-dihydro-3H-pyridazino[4,5-b]indole-1-carboxamide]	30 to 80	< 10
CCN(CC)C(=O)c1nn(CC(O)COCc2ccccc2)c(=O)c2c1c1c(F)cccc1n2C (centres unmarked) [Example 234, 3-(3-(benzyloxy)-2-hydroxypropyl)-N,N-diethyl-9-fluoro-5-methyl-4-oxo-4,5-dihydro-3H-pyridazino[4,5-b]indole-1-carboxamide]	30 to 80	< 10
Cn1c2ccccc2c2c(-c3ccccc3)nn(-c3ccccc3)c(=O)c21 [Example 235]	10 to 30	> 20
Cn1c2ccccc2c2c(-c3ccccc3)nn(-c3ccccc3F)c(=O)c21 [Example 237, 3-(2-fluorophenyl)-5-methyl-1-phenyl-3H-pyridazino[4,5-b]indol-4(5H)-one]	10 to 30	> 20
CCN(C(=O)Cn1nc(Cc2cccnc2)c2c3ccccc3n(C)c2c1=O)c1ccc2c(c1)OC(F)(F)O2 [Example 238, N-(2,2-difluorobenzo[d][1, 3]dioxol-5-yl)-N-ethyl-2-(5-methyl-4-oxo-1-(pyridin-3-ylmethyl)-4,5-dihydro-3H-pyridazino[4,5-b]indol-3-yl)acetamide]	30 to 80	< 10
CC(C)n1nc(-c2ccccc2)c2c3ccccc3n(C)c2c1=O [Example 239, 3-isopropyl-5-methyl-1-phenyl-3,5-dihydro-4H-pyridazino[4,5-b]indol-4-one]	30 to 80	> 20
CC(C)n1nc(-c2cccc(C#N)c2)c2c3ccccc3n(C)c2c1=O [Example 240, 3-(3-isopropyl-5-methyl-4-oxo-4,5-dihydro-3H-pyridazino[4,5-b]indol-1-yl)benzonitrile]	30 to 80	> 20
Cn1c2ccccc2c2c(-c3ccccc3)nn(C3CCCCC3)c(=O)c21 [Example 241, 3-cyclohexyl-5-methyl-1-phenyl-3,5-dihydro-4H-pyridazino[4,5-b]indol-4-one]	30 to 80	< 10
Cn1c2ccccc2c2c(-c3cccc(C#N)c3)nn(C3CCCCC3)c(=O)c21 [Example 244, 3-(3-cyclohexyl-5-methyl-4-oxo-4,5-dihydro-3H-pyridazino[4,5-b]indol-1-yl)benzonitrile]	30 to 80	< 10
COc1ccc2c(-c3cccc(Cl)c3)nn(CC(=O)C3(c4ccc5c(c4)OC(F)(F)O5)CC3)c(=O)c2c1 [Example 249, 4-(3-chlorophenyl)-2-(2-(1-(2,2-difluorobenzo[d][1,3]dioxol-5-yl)cyclopropyl)-2-oxoethyl)-7-methoxyphthalazin-1(2H)-one]	> 80	< 10
COc1ccc2c(-c3cccc(F)c3)nn(CC(=O)C3(c4ccc5c(c4)OC(F)(F)O5)CC3)c(=O)c2c1 [Example 250, 2-(2-(1-(2,2-difluorobenzo[d][1,3]dioxol-5-yl)cyclopropyl)-2-oxoethyl)-4-(3-fluorophenyl)-7-methoxyphthalazin-1(2H)-one]	30 to 80	< 10
COc1ccc(C2(C(=O)Cn3nc(-c4cccc(Cl)c4)c4ccc(OC)cc4c3=O)CC2)cc1 [Example 251, 4-(3-chlorophenyl)-7-methoxy-2-(2-(1-(4-methoxyphenyl)cyclopropyl)-2-oxoethyl)phthalazin-1(2H)-one]	30 to 80	< 10
COc1ccc2c(-c3cccc(C#N)c3)nn(CC(=O)C3(c4ccc5c(c4)OC(F)(F)O5)CC3)c(=O)c2c1 [Example 252, 3-(3-(2-(1-(2,2-difluorobenzo[d][1,3]dioxol-5-yl)cyclopropyl)-2-oxoethyl)-6-methoxy-4-oxo-3,4-dihydrophthalazin-1-yl)benzonitrile]	> 80	< 10
COc1ccc2c(c1)c1c(=O)n(CC(=O)N(C)c3ccc4nc(C)oc4c3)ncc1n2Cc1ccc(C#N)cc1 [Example 259, 2-(5-(4-cyanobenzyl)-8-methoxy-1-oxo-1,5-dihydro-2H-pyridazino[4,5-b]indol-2-yl)-N-methyl-N-(2-methylbenzo[d]oxazol-6-yl)acetamide]	> 80	< 10
COc1ccc2c(c1)c1c(=O)n(CC(=O)N(C)c3ccc4nc(C)oc4c3)ncc1n2Cc1ccc(F)cc1 [Example 260, 2-(5-(4-fluorobenzyl)-8-methoxy-1-oxo-1,5-dihydro-2H-pyridazino[4,5-b]indol-2-yl)-N-methyl-N-(2-methylbenzo[d]oxazol-6-yl)acetamide]	> 80	< 10

More lines, now with the values ahead:

Emax [%]	EC50 [µM]	Structure (SMILES)
30 to 80	< 10	CCN(C(=O)c1nn(CCOC)c(=O)c2c1c1ccccc1n2C)c1ccccc1 [Example 227, N-ethyl-3-(2-methoxyethyl)-5-methyl-4-oxo-N-phenyl-4,5-dihydro-3H-pyridazino[4,5-b]indole-1-carboxamide]
30 to 80	< 10	CCN(C(=O)c1nn(C[C@@H](O)COC)c(=O)c2c1c1ccccc1n2C)c1ccccc1 [Example 228, (R)-N-ethyl-3-(2-hydroxy-3-methoxypropyl)-5-methyl-4-oxo-N-phenyl-4,5-dihydro-3H-pyridazino[4,5-b]indole-1-carboxamide]
30 to 80	< 10	CCN(C(=O)c1nn(C[C@@H](O)CO)c(=O)c2c1c1ccccc1n2C)c1ccccc1 [Example 229, (R)-3-(2,3-dihydroxypropyl)-N-ethyl-5-methyl-4-oxo-N-phenyl-4,5-dihydro-3H-pyridazino[4,5-b]indole-1-carboxamide]
10 to 30	> 20	Cc1ccc(-n2nc(-c3ccccc3)c3c4ccccc4n(C)c3c2=O)cc1 [Example 236, 5-methyl-1-phenyl-3-(p-tolyl)-3H-pyridazino[4,5-b]indol-4(5H)-one]
30 to 80	> 20	Cc1ccc(-n2nc(Cn3ccnc3)c3c4ccccc4n(C)c3c2=O)cc1 [Example 242, 1-((1H-imidazol-1-yl)methyl)-5-methyl-3-(p-tolyl)-3,5-dihydro-4H-pyridazino[4,5-b]indol-4-one]
30 to 80	< 10	Cc1ccc(-n2nc(CN3CCOCC3)c3c4ccccc4n(C)c3c2=O)cc1 [Example 243, 5-methyl-1-(morpholinomethyl)-3-(p-tolyl)-3,5-dihydro-4H-pyridazino[4,5-b]indol-4-one]
10 to 30	< 10	CCN(C(=O)c1nn(-c2ccc(C)cc2)c(=O)c2c1c1sc(C)cc1n2C)c1ccccc1 [Example 245, N-ethyl-2,4-dimethyl-5-oxo-N-phenyl-6-(p-tolyl)-5,6-dihydro-4H-thieno[2′,3′:4,5]pyrrolo[2,3-d]pyridazine-8-carboxamide]
30 to 80	> 20	CCN(C(=O)c1nn(C(C)C)c(=O)c2c1c1sc(C)cc1n2C)c1ccccc1 [Example 246, N-ethyl-6-isopropyl-2,4-dimethyl-5-oxo-N-phenyl-5,6-dihydro-4H-thieno[2′,3′:4,5]pyrrolo[2,3-d]pyridazine-8-carboxamide]
30 to 80	> 20	CCN(C(=O)c1nn(-c2ccc(C)cc2)c(=O)c2c1c1sc(C)cc1n2C)c1ccccc1F [Example 247, N-ethyl-N-(2-fluorophenyl)-2,4-dimethyl-5-oxo-6-(p-tolyl)-5,6-dihydro-4H-thieno[2′,3′:4,5]pyrrolo[2,3-d]pyridazine-8-carboxamide]
10 to 30	< 10	Cc1ccc(-n2nc(C(=O)N(c3ccccc3)C(C)C)c3c(-c4ccccc4)onc3c2=O)cc1 [Example 248, N-isopropyl-7-oxo-N,3-diphenyl-6-(p-tolyl)-6,7-dihydroisoxazolo[3,4-d]pyridazine-4-carboxamide]
